In PubChem BioAssay AID256 (DTP/NCI, 2004):
Where “and” joins values, the source holds several entries; their conditions need not be identical. Identical values can stand only once. Toxic doses and inconclusive results are not listed. Rule for the calls: active = survival T/C of 150% or more; inactive = T/C below 125% in these data.

Tested on: CD2F1 mice, L1210 leukemia ip, survival T/C
Assay: NCI In Vivo Anticancer Drug Screen. Data for tumor model L1210 Leukemia (intraperitoneal) in CD2F1 (CDF1) mice
Conditions: higher = longer survival
In short: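 Tumor-bearing mice (transplanted tumor) were split into treated and vehicle control groups, and the measured endpoint of each treated group was divided by that of its vehicle controls.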

[1] = endpoint: mean survival time, dose: 100.0 mg/kg/injection, schedule: Q04DX002 (ip), vehicle: saline with Tween-80
[2] = endpoint: mean survival time, dose: 25.0 mg/kg/injection, schedule: Q01DX009 (ip), vehicle: other
[3] = endpoint: mean survival time, dose: 25.0 mg/kg/injection, schedule: Q01DX005 (ip), vehicle: water
[4] = endpoint: mean survival time, dose: 50.0 mg/kg/injection, schedule: Q01DX005 (ip), vehicle: water
[5] = endpoint: mean survival time, dose: 100.0 mg/kg/injection, schedule: Q01DX005 (ip), vehicle: water
[6] = endpoint: mean survival time, dose: 100.0 mg/kg/injection, schedule: Q04DX003 (ip), vehicle: saline with Tween-80
[7] = endpoint: mean survival time, dose: 200.0 mg/kg/injection, schedule: Q04DX003 (ip), vehicle: saline with Tween-80
[8] = endpoint: mean survival time, dose: 100.0 mg/kg/injection, schedule: Q01DX009 (ip), vehicle: saline with Tween-80
[9] = endpoint: mean survival time, dose: 200.0 mg/kg/injection, schedule: Q01DX009 (ip), vehicle: saline with Tween-80
[10] = endpoint: mean survival time, dose: 400.0 mg/kg/injection, schedule: Q01DX009 (ip), vehicle: saline with Tween-80
[11] = endpoint: mean survival time, dose: 12.5 mg/kg/injection, schedule: Q01DX005 (ip), vehicle: water
[12] = endpoint: mean survival time, dose: 400.0 mg/kg/injection, schedule: Q04DX003 (ip), vehicle: saline with Tween-80

Measured: T/C

COc1c(NC(=O)Nc2ccccc2C)cccc1[N+](=O)[O-]
inactive: endpoint: mean survival time, dose: 50.0 mg/kg/injection, schedule: Q04DX002 (ip), vehicle: saline with Tween-80 94 % of control | [1] 90 % of control and 96 % of control

O=C1OCC/C1=C/c1cccc(O)c1
inactive: endpoint: mean survival time, dose: 6.25 mg/kg/injection, schedule: Q04DX002 (ip), vehicle: Klucel (hydroxypropylcellulose) (HPC) 103 % of control | endpoint: mean survival time, dose: 25.0 mg/kg/injection, schedule: Q04DX002 (ip), vehicle: Klucel (hydroxypropylcellulose) (HPC) 107 % of control

Oc1cc2c3c(c1)c1cc4c(cc1c[n+]3CC2)OCO4
inactive: endpoint: mean survival time, dose: 3.13 mg/kg/injection, schedule: Q01DX009 (ip), vehicle: other 115 % of control | endpoint: mean survival time, dose: 3.13 mg/kg/injection, schedule: Q01DX009 (ip), vehicle: water 124 % of control | endpoint: mean survival time, dose: 12.5 mg/kg/injection, schedule: Q01DX009 (ip), vehicle: water 122 % of control | [2] 115 % of control

CNc1ncnc2c(C3OC(CO)C(O)C3O)[nH]nc12 (stereo unspecified)
inactive: [3] 108 % of control | [4] 120 % of control | [5] 96 % of control

CC(C)(C)C1CC=CCC1 (stereo unspecified)
inactive: [6] 98 % of control | [7] 98 % of control

O=C(CNC(=O)Nc1cccc([N+](=O)[O-])c1)N/N=C/c1ccccc1O
inactive: endpoint: mean survival time, dose: 50.0 mg/kg/injection, schedule: Q01DX009 (ip), vehicle: saline with Tween-80 93 % of control | [8] 86 % of control | [9] 89 % of control

CCCCCCCCCSCCS
inactive: [1] 96 % of control | endpoint: mean survival time, dose: 200.0 mg/kg/injection, schedule: Q04DX002 (ip), vehicle: saline with Tween-80 89 % of control | endpoint: mean survival time, dose: 400.0 mg/kg/injection, schedule: Q04DX002 (ip), vehicle: saline with Tween-80 100 % of control

Cc1ccc(S(=O)(=O)SCC(=O)c2ccc([N+](=O)[O-])cc2)cc1
inactive: endpoint: mean survival time, dose: 100.0 mg/kg/injection, schedule: Q01DX001 (ip), vehicle: saline 94 % of control | endpoint: mean survival time, dose: 100.0 mg/kg/injection, schedule: Q01DX009 (ip), vehicle: saline sonified 96 % of control | endpoint: mean survival time, dose: 200.0 mg/kg/injection, schedule: Q01DX001 (ip), vehicle: saline 92 % of control | endpoint: mean survival time, dose: 200.0 mg/kg/injection, schedule: Q01DX009 (ip), vehicle: saline sonified 97 % of control | endpoint: mean survival time, dose: 400.0 mg/kg/injection, schedule: Q01DX001 (ip), vehicle: saline 92 % of control

CCCCCCCCCCCCCCCc1ccc(C(=O)C[n+]2ccccc2)cc1
inactive: endpoint: mean survival time, dose: 12.5 mg/kg/injection, schedule: Q01DX009 (ip), vehicle: saline with Tween-80 117 % of control | endpoint: mean survival time, dose: 12.5 mg/kg/injection, schedule: Q04DX003 (ip), vehicle: saline with Tween-80 103 % of control | endpoint: mean survival time, dose: 25.0 mg/kg/injection, schedule: Q04DX003 (ip), vehicle: saline with Tween-80 106 % of control | endpoint: mean survival time, dose: 50.0 mg/kg/injection, schedule: Q04DX003 (ip), vehicle: saline with Tween-80 111 % of control

O=C(C[P+](c1ccccc1)(c1ccccc1)c1ccccc1)c1ccccc1
inactive: endpoint: mean survival time, dose: 25.0 mg/kg/injection, schedule: Q01DX001 (ip), vehicle: Klucel (hydroxypropylcellulose) (HPC) 107 % of control | endpoint: mean survival time, dose: 50.0 mg/kg/injection, schedule: Q01DX001 (ip), vehicle: Klucel (hydroxypropylcellulose) (HPC) 107 % of control | endpoint: mean survival time, dose: 100.0 mg/kg/injection, schedule: Q01DX001 (ip), vehicle: Klucel (hydroxypropylcellulose) (HPC) 96 % of control | [8] 103 % of control | [9] 97 % of control | [10] 103 % of control

O=[N+]([O-])c1ccc(Cc2ncnc3c2ncn3C2OC(CO)C(O)C2O)cc1 (stereo unspecified)
inactive: endpoint: mean survival time, dose: 12.5 mg/kg/injection, schedule: Q01DX005 (ip), vehicle: distilled water + Tween-80 103 % of control | endpoint: mean survival time, dose: 25.0 mg/kg/injection, schedule: Q01DX005 (ip), vehicle: distilled water + Tween-80 105 % of control | endpoint: mean survival time, dose: 50.0 mg/kg/injection, schedule: Q01DX005 (ip), vehicle: distilled water + Tween-80 108 % of control | endpoint: mean survival time, dose: 100.0 mg/kg/injection, schedule: Q01DX005 (ip), vehicle: distilled water + Tween-80 120 % of control | endpoint: mean survival time, dose: 200.0 mg/kg/injection, schedule: Q01DX005 (ip), vehicle: distilled water + Tween-80 120 % of control

COc1ccc(NC(=O)Oc2ccccc2F)c(Cl)c1
inactive: endpoint: mean survival time, dose: 50.0 mg/kg/injection, schedule: Q01DX009 (ip), vehicle: Klucel (hydroxypropylcellulose) (HPC) 96 % of control | endpoint: mean survival time, dose: 100.0 mg/kg/injection, schedule: Q01DX009 (ip), vehicle: Klucel (hydroxypropylcellulose) (HPC) 107 % of control | endpoint: mean survival time, dose: 200.0 mg/kg/injection, schedule: Q01DX009 (ip), vehicle: Klucel (hydroxypropylcellulose) (HPC) 104 % of control

C=C1CC2C=CC1C2 (stereo unspecified) (tested in a mixture with another compound)
inactive: endpoint: mean survival time, dose: 80.5 mg/kg/injection, schedule: Q01DX009 (ip), vehicle: saline with Tween-80 90 % of control

O=c1[nH]c(=O)n(CCCO)cc1F
inactive: [11] 111 % of control | [3] 115 % of control and 103 % of control | [4] 122 % of control and 123 % of control | endpoint: mean survival time, dose: 200.0 mg/kg/injection, schedule: Q01DX005 (ip), vehicle: water 96 % of control

O=c1nc2c(ncn2C2OC(CO)C(O)C2O)c(NCCc2ccccc2)[nH]1 (stereo unspecified)
inactive: [11] 93 % of control | [3] 98 % of control | [4] 96 % of control | [5] 112 % of control

O=C1SC(c2ccccc2)=S=C1c1ccccc1
inactive: endpoint: median survival time, dose: 25.0 mg/kg/injection, schedule: Q01DX009 (ip), vehicle: saline with Tween-80 100 % of control | endpoint: median survival time, dose: 50.0 mg/kg/injection, schedule: Q01DX009 (ip), vehicle: saline with Tween-80 105 % of control | endpoint: median survival time, dose: 100.0 mg/kg/injection, schedule: Q01DX009 (ip), vehicle: saline with Tween-80 103 % of control | endpoint: median survival time, dose: 200.0 mg/kg/injection, schedule: Q01DX009 (ip), vehicle: saline with Tween-80 97 % of control | endpoint: median survival time, dose: 400.0 mg/kg/injection, schedule: Q01DX009 (ip), vehicle: saline with Tween-80 101 % of control

Cc1cc(C(C)(C)C)c(Oc2ccc([N+](=O)[O-])cc2S(=O)(=O)O)c(C(C)(C)C)c1
inactive: [6] 102 % of control | [7] 101 % of control | [12] 92 % of control

CCOC(=O)Nc1cc(F)cc(C(F)(F)F)c1F
inactive: [8] 97 % of control | [9] 97 % of control | [10] 109 % of control

N#Cc1cnn(-c2ccc([N+](=O)[O-])cc2)c1N
inactive: [6] 111 % of control | [7] 100 % of control | [12] 100 % of control

CC(C)C1(C(=O)NNC(=O)CCCc2ccc(N(CCCl)CCCl)cc2)OC2(O)CCCCCN2C1=O (stereo unspecified)
inactive: endpoint: mean survival time, dose: 6.25 mg/kg/injection, schedule: Q04DX003 (ip), vehicle: DMSO 101 % of control | endpoint: mean survival time, dose: 12.5 mg/kg/injection, schedule: Q04DX003 (ip), vehicle: DMSO 95 % of control | endpoint: mean survival time, dose: 25.0 mg/kg/injection, schedule: Q04DX003 (ip), vehicle: DMSO 114 % of control

CS/C(N)=N\C(=O)N(C)C
inactive: [8] 98 % of control | [9] 110 % of control | [10] 103 % of control

CCN=C(N)c1ncnnc1N
inactive: endpoint: mean survival time, dose: 100.0 mg/kg/injection, schedule: Q01DX001 (ip), vehicle: carboxymethylcellulose (CMC) 104 % of control | endpoint: mean survival time, dose: 200.0 mg/kg/injection, schedule: Q01DX001 (ip), vehicle: carboxymethylcellulose (CMC) 102 % of control | endpoint: mean survival time, dose: 400.0 mg/kg/injection, schedule: Q01DX001 (ip), vehicle: carboxymethylcellulose (CMC) 102 % of control

N#C/C(=C1C=C/C(=N/O)C(Br)=C/1)c1ccccc1
inactive: [8] 108 % of control | [9] 96 % of control | [10] 95 % of control

NCCS/C=C/C(=O)O
inactive: endpoint: mean survival time, dose: 100.0 mg/kg/injection, schedule: Q04DX003 (ip), vehicle: saline 97 % of control | endpoint: mean survival time, dose: 200.0 mg/kg/injection, schedule: Q04DX003 (ip), vehicle: saline 109 % of control | endpoint: mean survival time, dose: 400.0 mg/kg/injection, schedule: Q04DX003 (ip), vehicle: saline 101 % of control

CN(C)N=Nc1cc(Cl)cc(C(N)=O)c1Cl
inactive: endpoint: mean survival time, dose: 88.0 mg/kg/injection, schedule: Q01DX009 (ip), vehicle: saline with Tween-80 123 % of control | endpoint: mean survival time, dose: 177.0 mg/kg/injection, schedule: Q01DX009 (ip), vehicle: saline with Tween-80 120 % of control | [10] 96 % of control

CC(C)OC(=O)C(NC=O)C(C)(C)S (stereo unspecified)
inactive: [8] 100 % of control | [9] 96 % of control | [10] 95 % of control

C=CCN(N=O)C(=O)OCC
inactive: endpoint: mean survival time, dose: 12.5 mg/kg/injection, schedule: Q01DX009 (ip), vehicle: other 107 % of control | [2] 107 % of control | endpoint: mean survival time, dose: 50.0 mg/kg/injection, schedule: Q01DX009 (ip), vehicle: other 104 % of control | endpoint: mean survival time, dose: 100.0 mg/kg/injection, schedule: Q01DX009 (ip), vehicle: other 113 % of control

O.O.O=S(=O)(O)O.[Co+3].[NH2-].[NH2-].[NH2-].[NH2-]
inactive: endpoint: mean survival time, dose: 100.0 mg/kg/injection, schedule: Q04DX002 (ip), vehicle: saline 108 % of control
